In ChEMBL document CHEMBL3137361, “MMV Box P. falciparum screening”:

Tested on: Plasmodium falciparum
Experiment: MMV: Growth inhibition of P. falciparum cultures was quantified using a parasite lactate dehydrogenase (LDH) assay. The cultures were diluted to 0.5% parasitemea and 2% hematocrit and subjected to each twofold serial dilutions of the compounds for 72 h (DMSO final concentration, 0.25%). After 72 h, the cultures were frozen. LDH activity of P. falciparum parasites in aliquots of freeze-thawed cultures was spectrophotometrically measured and the IC50s were determined.
Type: functional, organism-based
Details: FCR3, 72 h

Row | SMILES | IC50 [µM]
1 | COc1ccc2sc(N(Cc3cccnc3)C(=O)c3ccc(C#N)cc3)nc2c1 | > 5
2 | COCCNCC(O)Cn1c2ccc(Cl)cc2c2cc(Cl)ccc21 (stereo not given) | 0.277
3 | Cc1ccc(C)c(Cn2c(N3CCC(C(=O)NCc4cccs4)CC3)nc3ccccc32)c1 | 1.81
4 | CN(C)c1ccc(C(O)(c2ccc(N(C)C)cc2)c2ccc(N(C)C)cc2)cc1 [METHYLROSANILINE] | 0.0473
5 | CCc1ccc(Nc2cc(C)c3ccc(O)cc3n2)cc1 | 0.0767
6 | OC(CNCC1CCCO1)Cn1c2ccc(Cl)cc2c2cc(Cl)ccc21 (stereo not given) | 0.291
7 | O=c1nc(C=Cc2ccc(Cl)cc2)oc2ccccc12 | > 5
8 | COc1cccc(C2(C)Nc3ccccc3-c3nc4ccccc4n32)c1 (stereo not given) | 0.388
9 | O=C(Nc1ccc(N2CCCCC2)c(Cl)c1)c1ccc(Br)o1 | 1.09
10 | O=c1nc(C=Cc2ccc(Br)cc2)oc2ccccc12 | > 5
11 | CCCCCCC(O)(c1ccc(F)cc1)C(CN1CCOCC1)c1ccccc1 (stereo not given) | > 5
12 | CC(C)(C)c1ccc2c(c1)CN(Cc1ccc(Cl)cc1)CO2 | 0.0355
13 | CCC(O)c1ccc(Br)cc1NC(=O)c1cccc(Cl)c1 (stereo not given) | 1.33
14 | O=C1c2ccccc2C2=Nc3ccccc3SC(c3cccc(F)c3)C12 (stereo not given) | 0.708
15 | O=C(Nc1cccc(C(F)(F)F)c1)c1cc(Cl)ccc1O | 3.62
16 | FC(F)(F)c1cccc(Nc2nc(-c3ccccc3)nc3ncccc23)c1 | 0.905
17 | O=C(Nc1nc(-c2ccccn2)cs1)c1ccccc1Br | 2.72
18 | CCOc1cccc2sc(N(Cc3cccnc3)C(=O)C3CCCCC3)nc12 | > 5
19 | CC(C)(C)CC(C)(C)NCC(O)COc1ccc(Cl)cc1Cl (stereo not given) | 0.544
20 | COc1ccccc1NC1=C(N2CCCCC2)C(=O)c2ccccc2C1=O | 0.05

Row | SMILES | IC50 [µM]
21 | COc1ccc(Nc2nc(NCc3ccccc3)c3ccccc3n2)cc1 | 0.204
22 | c1ccc(CNc2nc(Nc3ccccc3)nc3ccccc23)cc1 | 0.43
23 | CCn1nc(-c2ccc(C(=O)OC)cc2)nc2c(=O)n(C)c(=O)nc1-2 | 1.51
24 | O=C(NCC1Cc2cccc(-c3ccncc3)c2O1)c1csc2c1CCCC2 (stereo not given) | > 5
25 | OC(CNC1CCCCC1)Cn1c2ccc(I)cc2c2cc(I)ccc21 (stereo not given) | 0.137
26 | COc1ccc(C(O)(CCC(C)C)C(CN2CCOCC2)c2ccc(Cl)cc2)cc1 (stereo not given) | > 5
27 | CSc1ccccc1C(=O)Nc1nc(-c2ccccn2)cs1 | 2.16
28 | Cc1ccc(Nc2nc(-c3ccccn3)cs2)cc1 | 1.43
29 | CC1(c2ccccc2)Nc2ccccc2-c2nc3ccccc3n21 (stereo not given) | 0.394
30 | OC1=C2C(=Nc3ccccc3SC2c2ccccc2)c2ccccc21 (stereo not given) | 0.337
31 | Cc1cc(Nc2ccc(OCc3ccccc3)cc2)nc2cc(O)ccc12 | 0.127
32 | CCCCC(O)(c1ccc(Cl)cc1)C(CN1CCOCC1)c1ccc(Cl)cc1 (stereo not given) | > 5
33 | O=C(Nc1ccc(Cl)c(Cl)c1)Nc1ccc(Cl)c(Cl)c1 | 2.02
34 | FC(F)(F)c1cccc(Nc2nc3ccccc3nc2Nc2cccc(C(F)(F)F)c2)c1 | 1.16
35 | Brc1ccc(Nc2nc3ccccc3nc2Nc2ccc(Br)cc2)cc1 | 1.56
36 | Oc1c(CN2CCN(c3ccccc3F)CC2)cc(Br)c2cccnc12 | 0.771
37 | OC(CNCc1ccccc1)Cn1c2ccccc2c2ccccc21 (stereo not given) | 0.717
38 | COc1ccc(C=C2SC(=N)N(c3ccccc3OC)C2=O)cc1 | 0.287
39 | OCCNc1nc(Nc2ccc(Cl)c(Cl)c2)nc2ccccc12 | 0.274
40 | COc1ccc(C(=O)C2CC2c2ccc(Cl)cc2)cc1 (stereo not given) | 2.7
